Reference: US10202356B2, “JAK2 and ALK2 inhibitors and methods for their use” (Tolero Pharmaceuticals, Inc., priority 2013, dated 2019)
Like-named read-outs stand apart in the source and are kept apart here.

Columns and labels:
[1] = molecular target: T1, JAK2 kinase (Homo sapiens, UniProt O60674); test: JAK2 kinase assay, Z'-LYTE technology; type: biochemical
T1 construct: purchased Life Technologies (Drug Discovery and Development Services, Madison, Wis.)
Method: (§1) Biochemical assays to measure the inhibitory effects of the compounds were performed by the Drug Discovery and Development Services at Life Technologies (Madison, Wis.). JAK2 kinase assays were performed using Z′-LYTE® technology, while ALK2 inhibition was tested using a LanthaScreen® binding assay.

[2] = molecular target: T2, ALK2 (Homo sapiens, UniProt Q04771); test: ALK2 inhibition, LanthaScreen binding assay
T2 construct: purchased Life Technologies (Drug Discovery and Development Services, Madison, Wis.)
T2 sequence (Q04771 21-509): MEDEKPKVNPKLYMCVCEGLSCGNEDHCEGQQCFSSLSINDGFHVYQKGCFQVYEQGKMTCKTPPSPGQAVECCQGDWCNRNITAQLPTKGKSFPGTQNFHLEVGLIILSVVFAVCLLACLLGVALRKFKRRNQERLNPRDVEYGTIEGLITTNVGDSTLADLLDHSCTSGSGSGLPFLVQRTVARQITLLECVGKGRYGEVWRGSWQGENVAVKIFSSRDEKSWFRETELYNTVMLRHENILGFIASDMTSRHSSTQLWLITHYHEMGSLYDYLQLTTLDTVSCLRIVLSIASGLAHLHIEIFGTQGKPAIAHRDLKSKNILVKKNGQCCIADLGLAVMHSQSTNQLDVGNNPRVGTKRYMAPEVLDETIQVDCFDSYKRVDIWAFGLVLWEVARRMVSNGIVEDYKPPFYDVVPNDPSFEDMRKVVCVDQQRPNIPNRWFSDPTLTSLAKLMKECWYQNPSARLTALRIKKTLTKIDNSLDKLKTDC
Method: as §1

[3] = Pharmacokinetic profile, IV and PO administration; type: in vivo, female rats; design: AUC 0-inf: concentration or dose not given beside the values; conditions: for half-life: read-out: t½ (converted)
[4] = test system: hepcidin expression; test: Liver hepcidin expression in mice after single oral dose, real-time RT-PCR; type: in vivo; conditions: single oral dose 250 mg/kg, liver mRNA after six hours
Method: Hepcidin expression in the mice treated with compounds 4 and 12 was compared to hepcidin expression in mice treated with compound A. In this experiment, mice were treated orally with a single dose of test compound. After six hours, livers were removed from euthanized animals and RNA extracted. Hepcidin mRNA levels were determined by real-time RT-PCR as described above.

[5] = test system: hepcidin expression induced by BMP2 in HEPG2 cells; test: BMP2-induced hepcidin expression in HEPG2 cells; type: cell-based; conditions: 0.3 μM
[6] = test system: hepcidin expression of HEPG2 cells; test: Baseline hepcidin expression in HEPG2 cells, real-time RT-PCR; type: cell-based; conditions: 3 μM, 6 hours, HEPG2, normalized to β-actin
Method: Hepcidin expression of HEPG2 cells treated with exemplary compounds of the invention was tested. […] To observe the ability of the compounds to effect baseline hepcidin expression, HEPG2 (hepatocellular carcinoma) cells were treated with compound for 6 hours and then assayed for hepcidin expression by real-time RT-PCR (normalized to levels of β-actin). Hepcidin expression was lowered in a dose dependent manner. Hepcidin expression was inhibited by 90% at a 3 μM concentration of Compound 12. […] In contrast, Compound 7 treated cells produced a 50% decrease in the induction when treated at 0.3 μM.

[7] = PO, free base or salt form as labelled

T1 sequence (O60674 whole entry): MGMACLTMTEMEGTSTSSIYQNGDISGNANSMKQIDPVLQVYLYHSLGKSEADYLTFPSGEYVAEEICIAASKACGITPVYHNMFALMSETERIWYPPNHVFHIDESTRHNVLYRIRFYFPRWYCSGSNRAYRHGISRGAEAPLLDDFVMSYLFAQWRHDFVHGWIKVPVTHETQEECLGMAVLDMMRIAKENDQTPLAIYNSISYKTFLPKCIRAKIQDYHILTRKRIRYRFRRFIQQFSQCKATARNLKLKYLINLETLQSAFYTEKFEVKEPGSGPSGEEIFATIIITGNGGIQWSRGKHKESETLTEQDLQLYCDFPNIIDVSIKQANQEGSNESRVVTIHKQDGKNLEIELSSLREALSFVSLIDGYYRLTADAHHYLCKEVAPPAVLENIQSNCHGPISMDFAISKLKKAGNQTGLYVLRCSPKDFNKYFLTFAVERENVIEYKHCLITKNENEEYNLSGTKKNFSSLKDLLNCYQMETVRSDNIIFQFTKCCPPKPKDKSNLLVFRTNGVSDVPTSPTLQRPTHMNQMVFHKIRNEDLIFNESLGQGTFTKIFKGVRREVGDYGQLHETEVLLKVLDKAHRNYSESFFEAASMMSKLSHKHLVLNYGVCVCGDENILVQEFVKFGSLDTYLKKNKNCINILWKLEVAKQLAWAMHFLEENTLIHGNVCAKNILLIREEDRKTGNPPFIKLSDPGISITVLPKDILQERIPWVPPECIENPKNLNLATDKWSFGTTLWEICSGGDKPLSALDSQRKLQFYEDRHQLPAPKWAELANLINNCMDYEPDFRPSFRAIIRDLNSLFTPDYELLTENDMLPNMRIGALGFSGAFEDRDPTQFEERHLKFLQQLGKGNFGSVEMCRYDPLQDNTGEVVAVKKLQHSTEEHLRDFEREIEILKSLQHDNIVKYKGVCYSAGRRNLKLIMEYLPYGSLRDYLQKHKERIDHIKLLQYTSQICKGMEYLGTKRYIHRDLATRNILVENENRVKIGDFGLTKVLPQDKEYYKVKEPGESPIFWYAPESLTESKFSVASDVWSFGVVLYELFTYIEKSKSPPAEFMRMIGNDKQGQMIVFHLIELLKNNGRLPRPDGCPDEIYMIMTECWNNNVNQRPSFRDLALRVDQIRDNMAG

Cc1ccc(Nc2ccnc(Nc3ccc(N4CCN(CCO)CC4)c(Cl)c3)n2)c(CC#N)c1 [Compound 18, 2-(2-(2-(3-chloro-4-(4-(2-hydroxyethyl)piperazin-1-yl)phenylamino)pyrimidin-4-ylamino)-5-methylphenyl)acetonitrile] gave an IC50 [1] of 10 to 1000 nM and an IC50 [2] of 10 to 1000 nM.

With CC(=O)O [Acetate] the “AUC 0-inf” value [3, 7] was 1200.1 ng·h/mL, the Cmax [3, 7] was 176.8 ng/mL and the F [3, 7] was 24.7 % IV. For the same compound, the Tmax [3, 7] was 0.5 h and the t½ [3, 7] was 5.8 h.

Compound COc1cc(Nc2nccc(Nc3ccc(C)cc3CC#N)n2)ccc1N1CCN(C)CC1 [Compound 19, 2-(2-(2-(3-methoxy-4-(4-methylpiperazin-1-yl)phenylamino)pyrimidin-4-ylamino)-5-methylphenyl)acetonitrile] has an IC50 [1] of 10 to 1000 nM and an IC50 [2] of 10 to 1000 nM.

Compound COc1cnc(Nc2ccc(N3CCN(CCO)CC3)c(Cl)c2)nc1Nc1cccc(C2(C#N)CC2)c1 [Compound 9, 1-(3-(2-(3-chloro-4-(4-(2-hydroxyethyl)piperazin-1-yl)phenylamino)-5-methoxypyrimidin-4-ylamino)phenyl)cyclopropanecarbonitrile] has an IC50 [1] of 10 to 1000 nM and an IC50 [2] of over 1000 nM.

In the case of Maleate, the “AUC 0-inf” value [3, 7] is reported as 484.8 ng·h/mL, the Cmax [3, 7] is reported as 34.2 ng/mL and the F [3, 7] is reported as 12.1 % IV. It also gave a Tmax [3, 7] of 8.0 h and a t½ [3, 7] of 8.5 h.

For OCCN1CCN(c2ccc(Nc3nccc(Nc4cccnc4-c4ccccn4)n3)cc2Cl)CC1 [Compound 10, 2-(4-(4-(4-(2,2′-bipyridin-3-ylamino)pyrimidin-2-ylamino)-2-chlorophenyl)piperazin-1-yl)ethanol], the IC50 [1] was 10 to 1000 nM and the IC50 [2] was 10 to 1000 nM.

In the case of N#CCc1cc(F)ccc1Nc1ccnc(Nc2ccc(N3CCN(CCO)CC3)c(Cl)c2)n1 [Compound 22, 2-(2-(2-(3-chloro-4-(4-(2-hydroxyethyl)piperazin-1-yl)phenylamino)pyrimidin-4-ylamino)-5-fluorophenyl) acetonitrile], the IC50 [1] is reported as 10 to 1000 nM and the IC50 [2] is reported as 10 to 1000 nM.

For Citrate, the “AUC 0-inf” value [3, 7] was 801.5 ng·h/mL, the Cmax [3, 7] was 93.4 ng/mL and the F [3, 7] was 22.4 % IV. It also gave a Tmax [3, 7] of 0.5 h and a t½ [3, 7] of 6.8 h.

With COc1cc(Nc2nccc(Nc3ccc(C)nc3-c3ccccn3)n2)cc(OC)c1OC [Compound 17, N^4-(6-methyl-2,2′-bipyridin-3-yl)-N^2-(3,4,5-trimethoxyphenyl)pyrimidine-2,4-diamine] the IC50 [1] was over 1000 nM and the IC50 [2] was 10 to 1000 nM.

For CN1CCN(c2ccc(Nc3ncc(Cl)c(Nc4cccc(CC#N)c4)n3)cc2F)CC1 [Compound 1, 2-(3-((5-chloro-2((3-fluoro-4-(4-methylpiperazin-1-yl)phenyl)amino)pyrimidin-4-yl)amino)phenyl)acetonitrile], the IC50 [1] was over 1000 nM and the IC50 [2] was over 1000 nM.

With COc1cc(Nc2nccc(Nc3cccc(C4(C#N)CC4)c3)n2)ccc1N1CCN(C)CC1 [Compound 4, 1-(3-(2-(3-methoxy-4-(4-methylpiperazin-1-yl)phenylamino)pyrimidin-4-ylamino)phenyl)cyclopropanecarbonitrile] the IC50 [1] was under 10 nM, the IC50 [2] was 10 to 1000 nM and the “hepcidin expression in mice compared to compound A” value [4] was “inhibit hepcidin expression to a greater extent than compound A”. The F ([3]; IV) was 100.0 % IV, the F [3, 7] was 15.4 % IV and the “plasma concentration levels after 24 hours” value ([3]; female rats) was “remain high”. The AUC 0-inf ([3]; female, rat, plasma, iv, read-out: AUC 0-inf) was 1380 ng·h/mL, the Cmax ([3]; female, rat, plasma, iv, read-out: Cmax) was 996 ng/mL and the Tmax ([3]; female, rat, plasma, iv, read-out: Tmax) was 0 h. For the same compound, the half-life ([3]; female, rat, plasma, iv) was 9.2 h, the AUC 0-inf ([3]; female, rat, plasma, PO, free base or salt form as labelled, read-out: AUC 0-inf) was 852 ng·h/mL and the Cmax ([3]; female, rat, plasma, PO, free base or salt form as labelled, read-out: Cmax) was 118 ng/mL. For the same compound, the Tmax ([3]; female, rat, plasma, PO, free base or salt form as labelled, read-out: Tmax) was 2 h and the half-life ([3]; female, rat, plasma, PO, free base or salt form as labelled) was 6.5 h.

In the case of COc1cc(Nc2nccc(Nc3ccc(C)c(CC#N)c3)n2)ccc1N1CCN(C)CC1 [Compound 21, 2-(5-(2-(3-methoxy-4-(4-methylpiperazin-1-yl)phenylamino)pyrimidin-4-ylamino)-2-methylphenyl)acetonitrile], the IC50 [1] is reported as under 10 nM and the IC50 [2] is reported as 10 to 1000 nM.

For O=C(O)C(O)C(O)C(=O)O (stereo not drawn) [Tartaric], the “AUC 0-inf” value [3, 7] was 370.9 ng·h/mL, the Cmax [3, 7] was 18.5 ng/mL and the Tmax [3, 7] was 0.3 h.

In the case of Oxalate, the “AUC 0-inf” value [3, 7] is reported as 721.2 ng·h/mL, the Cmax [3, 7] is reported as 81.9 ng/mL and the F [3, 7] is reported as 17.3 % IV. The Tmax [3, 7] was 0.5 h and the t½ [3, 7] was 7.3 h.

With N#CC1(c2cccc(Nc3ccnc(Nc4ccc(N5CCN(CCO)CC5)c(Cl)c4)n3)c2)CC1 [Compound 7, 1-(3-((2-((3-chloro-4-(4-(2-hydroxyethyl)piperazin-1-yl)phenyl)amino)pyrimidin-4-yl)amino)phenyl) cyclopropanecarbonitrile] the IC50 [1] was under 10 nM, the IC50 [2] was 10 to 1000 nM and the “decrease in the BMP2 induction of hepcidin” value [5] was 50%.

CN1CCN(c2ccc(Nc3nccc(Nc4cccc(C5(C#N)CC5)c4)n3)cc2F)CC1 [Compound 8, 1-(3-((2-((3-fluoro-4-(4-methylpiperazin-1-yl)phenyl)amino)pyrimidin-4-yl)amino)phenyl)cyclopropanecarbonitrile] gave an IC50 [1] of under 10 nM and an IC50 [2] of 10 to 1000 nM.

For COc1cc(Nc2nccc(Nc3cccc(C4(C#N)CC4)c3)n2)cc(OC)c1OC [Compound 5, 1-(3-(2-(3,4,5-trimethoxyphenylamino)pyrimidin-4-ylamino)phenyl)cyclopropanecarbonitrile], the IC50 [1] was under 10 nM and the IC50 [2] was over 1000 nM.

COc1cc(Nc2ncc(OC)c(Nc3cccnc3-c3ccccn3)n2)ccc1N1CCN(C)CC1 [Compound 14, N^4-([2,2′-bipyridin]-3-yl)-5-methoxy-N^2-(3-methoxy-4-(4-methylpiperazin-1-yl)phenyl)pyrimidine-2,4-diamine] gave an IC50 [1] of 10 to 1000 nM and an IC50 [2] of over 1000 nM.

CN1CCN(c2ccc(Nc3ncc(C#N)c(Nc4cccc(CC#N)c4)n3)cc2F)CC1 [Compound 3, 4-((3-(cyanomethyl)phenyl)amino)-2((3-fluoro-4-(4-methylpiperazin-1-yl)phenyl)amino)pyrimidine-5-carbonitrile] showed an IC50 [1] of over 1000 nM and an IC50 [2] of over 1000 nM.

Work on Cc1cnc(Nc2ccc(N3CCN(C)CC3)c(F)c2)nc1Nc1cccc(CC#N)c1 [Compound 2, 2-(3-((2-((3-fluoro-4-(4-methylpiperazin-1-yl)phenyl)amino)-5-methylpyrimidin-4-yl)amino)phenyl)acetonitrile] yielded an IC50 [1] of over 1000 nM and an IC50 [2] of over 1000 nM.

With COc1cc(Nc2nccc(Nc3cccnc3-c3ccccn3)n2)cc(OC)c1OC [Compound 12, N^4-(2,2′-bipyridin-3-yl)-N^2-(3,4,5-trimethoxyphenyl)pyrimidine-2,4-diamine] the IC50 [1] was over 1000 nM, the IC50 [2] was under 10 nM and the Hepcidin expression inhibited [6] was 90%. The “plasma concentration levels after 24 hours” value ([3]; female rats) was “remained high” and the bioavailability ([3]; rat, plasma, female rats, oral dose) was 95%.

Compound COc1cc(Nc2nccc(Nc3cccnc3-c3ccccn3)n2)ccc1N1CCN(C)CC1 [Compound 11, N^4-(2,2′-bipyridin-3-yl)-N^2-(3-methoxy-4-(4-methylpiperazin-1-yl)phenyl)pyrimidine-2,4-diamine] has an IC50 [1] of over 1000 nM and an IC50 [2] of under 10 nM.

Work on COc1cnc(Nc2ccc(N3CCN(CCO)CC3)c(Cl)c2)nc1Nc1cccnc1-c1ccccn1 [Compound 13, 2-(4-(4-(4-(2,2′-bipyridin-3-ylamino)-5-methoxypyrimidin-2-ylamino)-2-chlorophenyl)piperazin-1-yl)ethanol] yielded an IC50 [1] of over 1000 nM and an IC50 [2] of over 1000 nM.

Compound Cc1ccc(Nc2ccnc(Nc3ccc(N4CCN(CCO)CC4)c(Cl)c3)n2)c(-c2ccccn2)n1 [Compound 15, 2-(4-(2-chloro-4-(4-(6-methyl-2,2′-bipyridin-3-ylamino)pyrimidin-2-ylamino)phenyl)piperazin-1-yl)ethanol] has an IC50 [1] of over 1000 nM and an IC50 [2] of 10 to 1000 nM.

For COc1cc(Nc2nccc(Nc3ccc(C)nc3-c3ccccn3)n2)ccc1N1CCN(C)CC1 [Compound 16, N^2-(3-methoxy-4-(4-methylpiperazin-1-yl)phenyl)-N^4-(6-methyl-2,2′-bipyridin-3-yl)pyrimidine-2,4-diamine], the IC50 [1] was over 1000 nM and the IC50 [2] was 10 to 1000 nM.

For H2SO4 [Compound H2SO4], the “AUC 0-inf” value [3, 7] was 538.3 ng·h/mL, the Cmax [3, 7] was 53.8 ng/mL and the F [3, 7] was 17.8 % IV. For the same compound, the Tmax [3, 7] was 1.0 h and the t½ [3, 7] was 9.2 h.
